According to patent publication US12551562B2, “Methods and compositions for irreversible enzyme inhibition” (TRITERPENOID THERAPEUTICS, INC., priority 2019, dated 2026):

Tests used:
[1] = target: T1, HSA (Homo sapiens, UniProt P02768); experiment: Modification of HSA by triterpenoids, LC-MS/MS of tryptic digests; assay type: binding
T1 construct: contains 585 amino acids (corresponding to 25-609 of P02768); purchased Sigma-Aldrich
Protocol: Triterpenoids were dissolved in DMSO to make up 1 mM stock solutions, followed by dilutions in phosphate buffer (10 mM, pH 7.4) and incubated with recombinant HSA (0.6 mM, 50 μL) in sealed Eppendorf tubes at 37° C. for 16 h. The molar ratios of drug to protein were 0.00001:1, 0.0001:1, 0.001:1, 0.01:1, 0.1:1, and 1:1. Protein was precipitated twice with 9 volumes of ice-cold methanol to remove free drug, resuspended in 50 μL phosphate buffer and then reduced with 10 mM dithiothreitol (15 min) and alkylated with 55 mM iodoacetamide (15 min) at room temperature. The protein was precipitated with methanol once more and finally dissolved in 100 μL 50 mM ammonium hydrogencarbonate, and 165 μg […] of protein was digested with 1.6 μg trypsin overnight at 37° C.
To examine the time-dependent modification of HSA by triterpenoids, 10 μM triterpenoids was incubated with HSA (0.6 mM, 300 μL) at 37° C. Aliquots of 50 μL were removed after 10, 30, 60, and 180 minutes and processed for LC-MS/MS analysis.
(§1) The tryptic peptides were analyzed by a Triple TOF 5600 mass spectrometer (Sciex). […] Sequence coverage was determined using ProteinPilot software, v4.0 and the most recent version of the SwissProt database.

[2] = target: T2, His-GSTP (Homo sapiens, UniProt P09211); experiment: Modification of His-GSTP by triterpenoids, LC-MS/MS of tryptic digests; assay type: binding
T2 construct: made in house; host or cells: E. coli
Protocol: His-GSTP was expressed in E. coli as described previously. Purified His-GSTP captured on nickel beads was incubated with a range of concentrations of CDDO-Im (50 nM-10 μM) in phosphate buffer, pH 7.4 for 16 h. CDDO-Me (0.5 mM) was used as a positive control. The beads were then washed 5 times with 1000 μL phosphate buffer. The protein was subjected to on-bead tryptic digestion. In brief, a suspension beads in 30 μL of 50 mM ammonium bicarbonate buffer was incubated with 20 ng of trypsin for 16 h at 37° C. and the digest was analyzed by LC-MS/MS.
(§2) The tryptic peptides were analyzed by a Triple TOF 5600 mass spectrometer (Sciex). Samples were reconstituted in 50 μL 0.1% formic acid (FA) and 2 μL of samples were delivered into the instrument using an Eksigent Nano-LC system mounted with a nanoACQUITY UPLC Symmetry C18 Trap Column and an analytical BEH C18 nanoACQUITY Column (Waters, MA, USA). A NanoSpray III source was fitted with a 10 μm inner diameter PicoTip emitter (New Objective). Samples were loaded in 0.1% formic acid onto the trap, which was then washed with 2% ACN/0.1% FA for 10 min at 2 μL/min before switching in-line with the analytical column. A gradient of 2-50% (v/v) ACN/0.1% (v/v) FA over 90 min was applied to the column at a flow rate of 300 nL/min. Spectra were acquired automatically in positive ion mode using information-dependent acquisition, using mass ranges of 400-1600 amu in MS and 100-1400 amu in MS/MS. Up to 25 MS/MS spectra were acquired per cycle (approximately 10 Hz) using a threshold of 100 counts per s, with dynamic exclusion for 12 s and rolling collision energy. Sequence coverage was determined using ProteinPilot software, v4.0 and the most recent version of the SwissProt database.

[3] = target: T3, recombinant Keap1 (Homo sapiens, UniProt Q14145); experiment: Modification of Keap1 by triterpenoids, LC-MS/MS of tryptic digests; assay type: binding; settings: 100 μM, 16 h
T3 construct: made in house
Protocol: Triterpenoids were dissolved in DMSO to make up 1 mM stock solutions, followed by dilutions in phosphate buffer (10 mM, pH 7.4) and incubated with recombinant Keap1 proteins produced in house at 37° C. for 16 h. The final concentration of triterpenoids was 100 μM. The mixture was then purified by 1D-gel electrophoresis using an established protocol, followed by in gel-digestion. The digests were further purified by C18-ziptiping and analyzed by LC-MS/MS.
as §2, with “Spectra were acquired automatically in positive ion mode using information-dependent acquisition, using mass ranges of 400-1600 amu in MS and 100-1400 amu in MS/MS. Up to 25 MS/MS spectra were acquired per cycle (approximately 10 Hz) using a threshold of 100 counts per s, with dynamic exclusion for 12 s and rolling collision energy.” left out

[4] = target: T4, LONP protein (Homo sapiens, UniProt P36776); experiment: Modification of LONP by triterpenoids, LC-MS/MS of tryptic digests; assay type: binding; settings: 100 μM, 16 h; lysine (3), cysteine (3), tyrosine (2)
T4 construct: Professor John Letterio (supplied; not a vendor)
T4 sequence (P36776 68-959): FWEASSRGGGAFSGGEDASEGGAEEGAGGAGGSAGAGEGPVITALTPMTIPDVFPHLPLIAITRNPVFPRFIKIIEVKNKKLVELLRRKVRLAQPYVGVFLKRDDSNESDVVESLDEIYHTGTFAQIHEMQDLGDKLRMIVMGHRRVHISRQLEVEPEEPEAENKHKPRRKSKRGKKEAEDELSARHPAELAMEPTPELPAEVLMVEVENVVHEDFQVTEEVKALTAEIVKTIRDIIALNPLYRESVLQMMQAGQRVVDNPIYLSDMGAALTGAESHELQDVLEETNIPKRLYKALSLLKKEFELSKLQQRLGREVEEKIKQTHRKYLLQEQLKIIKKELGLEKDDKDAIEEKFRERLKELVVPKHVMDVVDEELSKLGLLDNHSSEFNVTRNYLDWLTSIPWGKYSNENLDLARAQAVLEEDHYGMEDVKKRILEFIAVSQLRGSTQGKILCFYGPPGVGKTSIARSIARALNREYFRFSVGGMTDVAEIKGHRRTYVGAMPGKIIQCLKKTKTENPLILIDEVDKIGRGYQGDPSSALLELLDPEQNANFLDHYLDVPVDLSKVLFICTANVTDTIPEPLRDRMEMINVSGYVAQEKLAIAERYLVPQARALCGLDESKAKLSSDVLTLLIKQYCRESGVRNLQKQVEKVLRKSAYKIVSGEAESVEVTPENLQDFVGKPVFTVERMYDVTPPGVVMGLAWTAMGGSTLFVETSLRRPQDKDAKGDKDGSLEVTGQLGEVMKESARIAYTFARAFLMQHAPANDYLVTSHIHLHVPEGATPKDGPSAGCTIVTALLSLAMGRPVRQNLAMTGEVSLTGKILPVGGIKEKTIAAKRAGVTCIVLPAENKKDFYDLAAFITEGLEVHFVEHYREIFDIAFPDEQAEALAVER
Protocol: The LONP protein (Professor John Letterio) was first purified by buffer exchange using spin filters (3K MWCO). 10 μg protein was then incubated with CDDO-2P-Im (100 μM) in phosphate buffer (10 mM, pH 7.4) at 37° C. for 16 h. The mixture was then purified by 1D-gel electrophoresis using an established protocol, followed by in gel-digestion. The digests were further purified by C18-ziptiping and analyzed by LC-MS/MS.
as §2, with “Spectra were acquired automatically in positive ion mode using information-dependent acquisition, using mass ranges of 400-1600 amu in MS and 100-1400 amu in MS/MS. Up to 25 MS/MS spectra were acquired per cycle (approximately 10 Hz) using a threshold of 100 counts per s, with dynamic exclusion for 12 s and rolling collision energy.” left out

[5] = system: Epstein-Barr virus-transformed B-cell lines; experiment: Modification of B cell intracellular proteins by triterpenoids, proteomics LC-MS/MS; assay type: cell-based, human
Protocol: Epstein-Barr virus-transformed B-cell lines were generated with previously described methods by incubating PBMC with supernatant from the Epstein-Barr virus-producing cell line B9-58. B cells were maintained in F1 medium at 37° C., 5% CO2. Cells were plated into an 8-well plate at a concentration of 1×10^6 cells/ml and treated with triterpenoids at different concentrations (0, 1, 10 μM) for 16 hours. 200 μL cells were then plated (1×10^5 cells/well) into a 96-well plate, [^3H]-thymidine (0.5 μCi/well) was then added and incubated for 16 hours. Cell was harvested and the proliferative responses were measured by [^3H]-thymidine incorporation. For the remaining cells, supernatants were removed for ELISA (TNFα, IL10, and IFNγ) and proteomics analysis. The cells were then washed in PBS and lysed with 2D lysis buffer (40 mM Tris base, 7M urea, 2M thiourea, 4% (w/v) CHAPS, and 1% DTT). Cell lysates were sonicated and centrifuged at 18000 rpm for 20 minutes at […]. Supernatants were collected and the protein concentrations were measured by BCA assay. Proteins were denatured and processed for mass spectrometric analysis.
as §1

T2 sequence (P09211 whole entry): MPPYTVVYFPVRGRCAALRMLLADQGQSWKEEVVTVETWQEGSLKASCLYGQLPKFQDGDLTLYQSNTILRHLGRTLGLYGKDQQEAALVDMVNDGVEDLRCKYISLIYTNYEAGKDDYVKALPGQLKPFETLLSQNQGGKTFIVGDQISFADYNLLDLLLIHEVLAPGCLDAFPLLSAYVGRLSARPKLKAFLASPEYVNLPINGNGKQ
T1 sequence (P02768 25-609): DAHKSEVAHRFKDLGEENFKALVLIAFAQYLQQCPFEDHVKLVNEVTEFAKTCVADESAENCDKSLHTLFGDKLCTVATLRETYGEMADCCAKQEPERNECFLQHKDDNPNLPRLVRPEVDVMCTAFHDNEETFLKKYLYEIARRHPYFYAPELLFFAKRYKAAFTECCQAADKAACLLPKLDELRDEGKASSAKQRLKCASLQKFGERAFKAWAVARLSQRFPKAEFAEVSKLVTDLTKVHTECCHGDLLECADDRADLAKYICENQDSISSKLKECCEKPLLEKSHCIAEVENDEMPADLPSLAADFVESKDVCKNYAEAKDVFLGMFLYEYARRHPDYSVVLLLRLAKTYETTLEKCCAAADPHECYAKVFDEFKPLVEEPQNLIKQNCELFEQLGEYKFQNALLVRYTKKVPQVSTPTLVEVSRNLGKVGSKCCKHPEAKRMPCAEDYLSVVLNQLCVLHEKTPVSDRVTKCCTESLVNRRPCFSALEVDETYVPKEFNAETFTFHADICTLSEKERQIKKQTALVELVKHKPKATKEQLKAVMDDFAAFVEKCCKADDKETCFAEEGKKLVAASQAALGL
T3 sequence (Q14145 whole entry): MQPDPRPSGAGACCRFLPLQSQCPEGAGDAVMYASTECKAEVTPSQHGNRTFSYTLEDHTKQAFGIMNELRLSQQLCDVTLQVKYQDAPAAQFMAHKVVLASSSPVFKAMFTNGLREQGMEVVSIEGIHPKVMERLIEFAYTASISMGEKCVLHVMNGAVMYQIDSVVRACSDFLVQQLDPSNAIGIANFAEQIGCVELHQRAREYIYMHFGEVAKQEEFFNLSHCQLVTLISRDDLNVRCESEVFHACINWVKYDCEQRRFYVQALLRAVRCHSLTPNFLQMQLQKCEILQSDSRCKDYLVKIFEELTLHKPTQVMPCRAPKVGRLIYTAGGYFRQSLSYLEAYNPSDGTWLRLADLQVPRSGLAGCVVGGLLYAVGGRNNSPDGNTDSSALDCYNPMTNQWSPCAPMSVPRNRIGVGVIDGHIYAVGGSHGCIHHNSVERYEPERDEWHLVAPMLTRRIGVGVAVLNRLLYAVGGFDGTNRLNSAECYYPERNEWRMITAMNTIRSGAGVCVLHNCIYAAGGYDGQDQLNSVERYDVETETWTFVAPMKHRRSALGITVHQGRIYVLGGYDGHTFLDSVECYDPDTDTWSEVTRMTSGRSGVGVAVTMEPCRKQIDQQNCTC

CC1(C)CC[C@]2(C(=O)n3ccnc3)CC[C@]3(C)[C@H](C(=O)C=C4[C@@]5(C)C=C(C#N)C(=O)C(C)(C)[C@@H]5CC[C@]43C)[C@@H]2C1 [CDDO-Im, 1-(2-cyano-3,12-dioxooleana-1,9(11)-dien-28-oyl) imidazole]
modification of HSA, dependence on concentration and time ([1]; normalized ion counts of modified peptides): concentration- and time-dependent | covalent binding to GSTP, dependence on concentration ([2]; 16 hour incubation at 37° C.): concentration-dependent | lowest concentration at which adducts with GSTP were detectable ([2]; phosphate buffer pH 7.4, 16 h, 50 nM-10 μM tested): 50 nM | site of the simple Michael adduct (CDDO carboxylate, +491.5 amu) on GSTP ([2]; tryptic digests of treated GSTP): only detected on Cys48

CC1(C)CC[C@]2(C(=O)n3cnc(-c4ccccn4)c3)CC[C@]3(C)[C@H](C(=O)C=C4[C@@]5(C)C=C(C#N)C(=O)C(C)(C)[C@@H]5CC[C@]43C)[C@@H]2C1 [CDDO-2P-Im, 1-[2-Cyano-3,12-dioxooleana-1,9(11)-dien-28-oyl]-4(-pyridin-2-yl)-1H-imidazole]
number of CDDO-modified HSA peptides ([1]; 500 μM, 16 h, lysine (9), arginine (2), serine (7), tyrosine (5)): 23 | modification of Cys151 of Keap1 [3]: not detected | number of binding sites identified on Keap1 ([3]; phosphate buffer pH 7.4): 8 | covalent binding to GSTP, dependence on concentration ([2]; 16 hour incubation at 37° C.): bind to GSTP in a similar manner | plateau of binding to GSTP ([2]; in comparison to CDDO-Im, 16 hour incubation at 37° C., FIG. 1C/1D): binding does not plateau above 5 μM | preferred binding site on GSTP ([2]; increasing drug concentrations, 16 hour incubation at 37° C., FIG. 1D): Cys48 | number of modified LONP peptides [4]: 8 | number of modified B cell proteins identified ([5]; 10 μM for 16 hours): 32 | modification of the 4 active cysteine residues of PPIA ([5]; B cells treated with 10 μM for 16 hours): all modified
